30 compounds from ChEMBL document CHEMBL3397041, “Schiff's bases of quinazolinone derivatives: Synthesis and SAR studies of a novel series of potential anti-inflammatory and antioxidants” (Bioorg Med Chem Lett, 2015) can be followed below.

A short description of data set [1]: Antioxidant activity assessed as DPPH scavenging activity after 30 mins by spectrophotometry. Format: physicochemical.
A short description of data set [2]: Antioxidant activity assessed as DMPD scavenging activity after 15 mins by spectrophotometry. Format: physicochemical.
Data set [3] in a line: Antiinflammatory activity in human erythrocytes assessed as inhibition of hypotonic solution-induced hemolysis after 10 mins by spectrophotometry. The format is functional, cell-based. The settings on record: erythrocyte.
Data set [4] in a line: Antioxidant activity assessed as ABTS scavenging activity after 6 mins by spectrophotometry. The format is physicochemical.

Regarding `O=C(O)CCc1nc(O)c2ccccc2n1`, the IC50 in data set [1] was determined as 1100 uM/ml.

In the case of `COc1cc(/C=N/NC(=O)CCc2nc3ccccc3c(=O)[nH]2)cc(OC)c1O`, the IC50 in data set [2] is recorded as 275 uM/ml; in data set [1], 126 uM/ml; in data set [3], 530 uM/ml; in data set [4], 105 uM/ml.

As to `O=C(O)CCCc1nc2ccccc2c(=O)[nH]1`, the IC50 in data set [1] came to 1250 uM/ml.

On to `COC(=O)CCc1nc2ccccc2c(=O)[nH]1.Cl`, for which the IC50 is 862 uM/ml in data set [1] and 1163 uM/ml in data set [3].

In the case of `COC(=O)CCCc1nc2ccccc2c(=O)[nH]1.Cl`, the IC50 is listed as 772 uM/ml in data set [1], 975 uM/ml in data set [3] and 280 uM/ml in data set [4].

For the compound `O=C(CCc1nc2ccccc2c(=O)[nH]1)N/N=C/c1ccccc1`, the IC50 in data set [1] turned out to be 734 uM/ml; in data set [4], 265 uM/ml.

Take `O=C(CCCc1nc2ccccc2c(=O)[nH]1)N/N=C/c1ccccc1`: the values for the IC50 in data set [1] and in data set [4] were 568 uM/ml and 240 uM/ml, respectively.

As to `O=C(CCc1nc2ccccc2c(=O)[nH]1)N/N=C/c1ccc(Cl)cc1`, the IC50 in data set [1] came out at 381 uM/ml; in data set [3] it was 84 uM/ml; in data set [4], 185 uM/ml.

With `O=C(CCCc1nc2ccccc2c(=O)[nH]1)N/N=C/c1ccc(Cl)cc1`, the IC50 in data set [1] was 353 uM/ml; in data set [3] it was 67 uM/ml.

Turning to `O=C(CCc1nc2ccccc2c(=O)[nH]1)N/N=C/c1ccc([N+](=O)[O-])cc1`, the IC50 in data set [1] is on record as 328 uM/ml; in data set [3] it was 54 uM/ml; in data set [4], 220 uM/ml.

`O=C(CCCc1nc2ccccc2c(=O)[nH]1)N/N=C/c1ccc([N+](=O)[O-])cc1`: the IC50 in data set [1] is 316 uM/ml; in data set [3] it was 52 uM/ml; in data set [4] it was 270 uM/ml.

Regarding `O=C(CCc1nc2ccccc2c(=O)[nH]1)N/N=C/c1ccc(O)cc1`, the IC50 turned out to be 300 uM/ml in data set [2], 238 uM/ml in data set [1] and 105 uM/ml in data set [4].

As to `O=C(CCCc1nc2ccccc2c(=O)[nH]1)N/N=C/c1ccc(O)cc1`, the IC50 in data set [1] came out at 214 uM/ml; in data set [4], 170 uM/ml.

Regarding `COc1ccc(/C=N/NC(=O)CCc2nc3ccccc3c(=O)[nH]2)cc1`, the IC50 in data set [1] is 214 uM/ml; in data set [4], 75 uM/ml.

Turning to `COc1ccc(/C=N/NC(=O)CCCc2nc3ccccc3c(=O)[nH]2)cc1`, the IC50 in data set [2] turned out to be 280 uM/ml; in data set [1] it was 247 uM/ml; in data set [4], 180 uM/ml.

On to `O=C(CCc1nc2ccccc2c(=O)[nH]1)N/N=C/c1ccc(O)c(O)c1`, for which the IC50 in data set [2] is reported as 105 uM/ml; in data set [1] it was 113 uM/ml; in data set [3], 255 uM/ml; in data set [4], 40 uM/ml.

As to `O=C(CCCc1nc2ccccc2c(=O)[nH]1)N/N=C/c1ccc(O)c(O)c1`, the IC50 is 75 uM/ml in data set [2], 95 uM/ml in data set [1], 300 uM/ml in data set [3] and 50 uM/ml in data set [4].

Regarding `COc1cc(/C=N/NC(=O)CCc2nc3ccccc3c(=O)[nH]2)ccc1O`, the IC50 was 290 uM/ml in data set [2], 204 uM/ml in data set [1] and 95 uM/ml in data set [4].

With `COc1cc(/C=N/NC(=O)CCCc2nc3ccccc3c(=O)[nH]2)ccc1O`, the IC50 in data set [2] was 280 uM/ml; in data set [1] it was 236 uM/ml; in data set [4], 115 uM/ml.

In the case of `COc1cc(/C=N/NC(=O)CCCc2nc3ccccc3c(=O)[nH]2)cc(OC)c1O`, the IC50 in data set [2] turned out to be 225 uM/ml; in data set [1] it was 97 uM/ml; in data set [3] it was 524 uM/ml; in data set [4], 135 uM/ml.

Take `COc1cc(/C=N/NC(=O)CCc2nc3ccccc3c(=O)[nH]2)cc(O)c1O`: the IC50 is recorded as 50 uM/ml in data set [2], 104 uM/ml in data set [1], 261 uM/ml in data set [3] and 40 uM/ml in data set [4].

In the case of `COc1cc(/C=N/NC(=O)CCCc2nc3ccccc3c(=O)[nH]2)cc(O)c1O`, the IC50 in data set [2] turned out to be 80 uM/ml; in data set [1], 88 uM/ml; in data set [3], 277 uM/ml; in data set [4], 50 uM/ml.

Take `COc1cc(/C=N/NC(=O)CCc2nc3ccccc3c(=O)[nH]2)cc(OC)c1OC`: the IC50 in data set [2] amounted to 80 uM/ml; in data set [1], 85 uM/ml; in data set [3], 682 uM/ml; in data set [4] it was 55 uM/ml.

With `COc1cc(/C=N/NC(=O)CCCc2nc3ccccc3c(=O)[nH]2)cc(OC)c1OC`, the IC50 in data set [2] stood at 85 uM/ml; in data set [1] it was 106 uM/ml; in data set [3], 613 uM/ml; in data set [4], 60 uM/ml.

For the compound `O=C(CCc1nc2ccccc2c(=O)[nH]1)N/N=C/c1cc(O)c(O)c(O)c1`, the IC50 in data set [2] is on record as 45 uM/ml; in data set [1], 81 uM/ml; in data set [3], 203 uM/ml; in data set [4], 35 uM/ml.

For `O=C(CCCc1nc2ccccc2c(=O)[nH]1)N/N=C/c1cc(O)c(O)c(O)c1`, the IC50 worked out at 45 uM/ml in data set [2], 78 uM/ml in data set [1], 183 uM/ml in data set [3] and 40 uM/ml in data set [4].

`O=C1O[C@H]([C@@H](O)CO)C(O)=C1O` [ASCORBIC ACID]: the IC50 in data set [2] is given as 140 uM/ml; in data set [4] it was 65 uM/ml.

Regarding `CC(=O)Oc1ccccc1C(=O)O` [ASPIRIN], the IC50 in data set [3] is recorded as 166 uM/ml.

Regarding `Cc1cc(C(C)(C)C)c(O)c(C(C)(C)C)c1` [BUTYLATED HYDROXYTOLUENE], the IC50 in data set [1] is 114 uM/ml.

On to `O=C(O)c1cc(O)c(O)c(O)c1` [GALLIC ACID], for which the IC50 in data set [2] was determined as 100 uM/ml; in data set [4] it was 60 uM/ml.
